Holding throughout (assay): NCI-60 cell line screen, 48 h
In test [1] the test system is 786-0 renal.
The subject of test [2] is ACHN renal.
The subject of test [3] is EKVX NSCLC.
Test [4] concerns K-562 leukemia.
Test [5] has as its system KM12 colon.
The subject of test [6] is M14 melanoma.
Test [7] concerns MCF7 breast.
The test system of test [8] is PC-3 prostate.
In test [9] the test system is SK-MEL-5 melanoma.
Test [10] has as its system CAKI-1 renal.

“And” between values parts separate entries of the source, which are not always exact repeats. Equal entries are not always repeated.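 Five compound concentrations were applied to cells in 96-well plates for 48 hours; endpoints were derived by simple linear interpolation of the resulting dose-response curve. GI50 is the concentration that inhibits growth by half. The concentration for full growth arrest is given as TGI.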 A value given as a limit tells only on which side of the number the result lay.

Turning to `CC(=O)CCc1ccc(Oc2c3c(nc4ccccc24)OCC3)cc1`, the GI50 in [1] was greater than 100 µM; in [2], 53.9 µM; in [3] it was 13.8 µM; in [4], 59.3 µM; in [5], greater than 100 µM; in test [6] it was greater than 100 µM. Further, the GI50 is 60.6 µM in test [7], 82.3 µM in test [8] and 16.6 µM in test [9]. For the same compound, the TGI in [1] was greater than 100 µM; in test [2] it was greater than 100 µM; in [3], 98.6 µM; in test [4], greater than 100 µM; in test [5], greater than 100 µM; in test [6], greater than 100 µM. Besides, the TGI in test [7] was greater than 100 µM; in test [8] it was greater than 100 µM; in [9], 55.1 µM.

As for `Cc1c(NC(=O)Nc2c(Cl)cccc2Cl)c(=O)n(-c2ccccc2)n1C`, the TGI in test [1], in test [2], in test [10], in [3], in test [4] and in test [5] was greater than 100 µM throughout. Besides, the TGI in test [6], in test [7], in [8] and in test [9] was greater than 100 µM each time.

On to `Cn1cc(C2=C(c3cc[nH]c3)C(=O)NC2=O)c2ccccc21`, for which the GI50 in test [1] was greater than 25 µM; in [2] it was greater than 25 µM; in test [10] it was greater than 25 µM; in test [4] it was greater than 25 µM; in test [5] it was 25 µM; in test [6], greater than 25 µM. Besides, the GI50 in test [7] is 11.8 µM; in test [8] it was greater than 25 µM; in [9], greater than 25 µM. Further, the TGI in [1], in [2], in [10], in test [4], in test [5] and in test [6] was greater than 25 µM each time. The TGI in test [7], in test [8] and in test [9] was greater than 25 µM each time.

On to `CC(C)c1[nH]nc2c(NCc3ccc(-c4ccccn4)cc3)nc(SCCN)nc12`, for which the GI50 was 0.143 µM and 0.327 µM in [1]; 0.273 µM and 0.286 µM in test [2]; 2.47 µM and 2.84 µM in test [10]; 0.0328 µM and 0.0557 µM in [3]; 0.0198 µM in [4]; 0.0175 µM and 0.0126 µM in test [5]. In addition, the GI50 is 0.0155 µM and 0.0181 µM in [6]; 0.00401 µM in [7]; 0.0257 µM in test [8]. Also, the TGI in test [2] was 4.7 µM; in test [10], 14.8 µM; in test [3], 1.52 µM and 2.62 µM; in [4], 10.2 µM; in test [5] it was 10.3 µM; in test [6], 0.151 µM and 1.16 µM. Moreover, the TGI in [7] is 2.28 µM and 10.2 µM; in test [8] it was 4.11 µM and 12.3 µM.

For `Cc1cc(Cl)nc(N(CCCNc2ccnc3cc(Cl)ccc23)Cc2cccs2)n1`, the GI50 in test [1] was 1.49 µM; in test [2], 2 µM; in test [3], 1.99 µM; in [4] it was 0.496 µM; in test [5], 2.61 µM; in [6], 1.23 µM. In addition, the results for the GI50 in [7], in [8] and in [9] were 1.74 µM, 1.83 µM and 1.42 µM, respectively. Moreover, the TGI is 4.35 µM in test [1]; 11.5 µM in test [2]; 12.7 µM in [3]; 8.55 µM in [4]; 11 µM in [5]; 2.91 µM in [6]. In addition, the TGI in [7] was 6.85 µM; in test [8] it was 13.7 µM; in test [9] it was 2.79 µM.

Consider `O=C(NCc1ccco1)C1CCN(S(=O)(=O)c2ccc(Cl)cc2)CC1`, for which the GI50 in test [1] was greater than 100 µM; in test [2], greater than 100 µM; in [10], greater than 100 µM; in test [4] it was 39.2 µM; in [5], greater than 100 µM; in [7], 37.8 µM. Besides, the results for the GI50 in test [8] and in test [9] were 73.8 µM and 53.5 µM, respectively. Moreover, the TGI in test [1], in test [2], in test [10], in test [4], in test [5] and in [7] was greater than 100 µM each time. Further, the TGI in test [8] and in [9] was greater than 100 µM in each case.

For `Cn1c2c(c3ccccc3c1=O)C(=O)c1ccccc1-2`, the TGI in test [1], in test [10], in test [3], in test [4], in test [5] and in test [6] was greater than 100 µM in each case. In addition, the TGI in test [7], in test [8] and in test [9] was greater than 100 µM in each case.

With `O=C(N=Nc1c(Cl)c(O)c2ccccc2c1O)C(=O)Nc1cccc(C(F)(F)F)c1`, the GI50 in test [1] is 12.6 µM; in [2] it was 1.92 µM; in test [10], 8.66 µM; in test [4], 3.94 µM; in test [5], 5.45 µM; in test [6], 1.96 µM. Also, the GI50 in [7] is 1.84 µM; in [8], 3 µM; in test [9] it was 1.7 µM. Besides, the TGI in test [1] came to 25.1 µM; in test [2], 7.12 µM; in [10], 23.7 µM; in [4], 25.6 µM; in test [5] it was 16.6 µM; in [6] it was 4.1 µM. Also, the TGI in [7] was 4.31 µM; in test [8], 16.2 µM; in [9], 3.98 µM.

Take `O=C1CC(Cc2n[nH]c3c2CCCC3)CC(=O)N1`: the TGI in test [1], in test [10], in [3], in [4], in [5] and in test [6] was greater than 100 µM in each case. Further, the TGI in [7], in test [8] and in [9] was greater than 100 µM throughout.

As to `CC(C)(O)CCc1cccc(C(=O)c2cnn(-c3ccc(F)cc3)c2N)c1`, the GI50 in test [1], in test [2], in test [10], in test [4], in test [5] and in test [6] was greater than 25 µM in each case. Moreover, the GI50 in test [7] was greater than 25 µM; in test [8], greater than 25 µM; in test [9] it was 13.5 µM. Further, the TGI in [1], in test [2], in [10], in [4], in test [5] and in test [6] was greater than 25 µM throughout. The TGI in test [7], in [8] and in test [9] was greater than 25 µM throughout.
